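A five-concentration, 48-hour dose response in 96-well plates underlies each endpoint, interpolated linearly between surrounding concentrations. The concentration for 50% growth inhibition is given as GI50.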 Activity calls are given as the source filed them. Cut-off read from the data, not from the text of the source: active = GI50 up to about 1.1 µM and inactive = higher. Starred links: 1 amine or outer side, 2 acyl side, 3 side chain; linkers in the order of their positions; H or OH if unused. Non-standard residues stand in square brackets, D forms with d. Residues, ends and D or L forms follow the SMILES beside them. *: point of attachment. X34 = CC(=O)N(C)SCC(N[*:1])C(=O)[*:2]; Cbz = O=C(OCc1ccccc1)*; Bn = c1ccc(C*)cc1; For = O=C*
Columns and labels:
Assay in all cases: inhibition of tumour cell growth, NCI panel, 48 h
SF-268 = tested on: SF-268
HOP-92 = tested on: HOP-92
SK-OV-3 = tested on: SK-OV-3
Malme-3M = tested on: Malme-3M
KM12 = tested on: KM12
HCT-116 = tested on: HCT-116
RXF 393 = tested on: RXF 393
NCI-H226 = tested on: NCI-H226
SNB-75 = tested on: SNB-75
MOLT-4 = tested on: MOLT-4
786-0 = tested on: 786-0
UO-31 = tested on: UO-31
OVCAR-3 = tested on: OVCAR-3
CAKI-1 = tested on: CAKI-1
OVCAR-5 = tested on: OVCAR-5
UACC-62 = tested on: UACC-62
DU-145 = tested on: DU-145
A549 = tested on: A549
NCI-H522 = tested on: NCI-H522
A498 = tested on: A498

| Compound | GI50 (SF-268) | GI50 (HOP-92) | GI50 (SK-OV-3) | GI50 (Malme-3M) | GI50 (KM12) | GI50 (HCT-116) | GI50 (RXF 393) | GI50 (NCI-H226) | GI50 (SNB-75) | GI50 (MOLT-4) | GI50 (786-0) | GI50 (UO-31) | GI50 (OVCAR-3) | GI50 (CAKI-1) | GI50 (OVCAR-5) | GI50 (UACC-62) | GI50 (DU-145) | GI50 (A549) | GI50 (NCI-H522) | GI50 (A498) |
| --- | --- | --- | --- | --- | --- | --- | --- | --- | --- | --- | --- | --- | --- | --- | --- | --- | --- | --- | --- | --- |
| CC(C)(/C=N/O)/[N+]([O-])=C/c1ccccc1 | > 100 µM (inactive) | > 100 µM (inactive) | > 100 µM (inactive) | > 100 µM (inactive) | > 100 µM (inactive) | > 100 µM (inactive) | > 100 µM (inactive) | > 100 µM (inactive) | > 100 µM (inactive) | > 100 µM (inactive) | > 100 µM (inactive) | > 100 µM (inactive) | > 100 µM (inactive) | > 100 µM (inactive) | > 100 µM (inactive) | > 100 µM (inactive) | > 100 µM (inactive) | > 100 µM (inactive) | – | – |
| Nc1ccccc1C(=O)CC1OC(=O)c2ccccc21 (stereo not drawn) | 69.3 µM (inactive) | > 100 µM (inactive) | > 100 µM (inactive) | 50.5 µM (inactive) | 33.4 µM (inactive) | 51.6 µM (inactive) | – | > 100 µM (inactive) | 23 µM (inactive) | > 100 µM (inactive) | 88.5 µM (inactive) | > 100 µM (inactive) | 78.3 µM (inactive) | – | > 100 µM (inactive) | 64.9 µM (inactive) | 51.4 µM (inactive) | 65.6 µM (inactive) | > 100 µM (inactive) | 43.2 µM (inactive) |
| N#C/C(C(=O)Nc1ccccc1)=C(/N)N1CCOCC1 | – | > 100 µM (inactive) | > 100 µM (inactive) | – | > 100 µM (inactive) | > 100 µM (inactive) | – | > 100 µM (inactive) | > 100 µM (inactive) | > 100 µM (inactive) | > 100 µM (inactive) | > 100 µM (inactive) | > 100 µM (inactive) | > 100 µM (inactive) | > 100 µM (inactive) | > 100 µM (inactive) | > 100 µM (inactive) | > 100 µM (inactive) | – | > 100 µM (inactive) |
| C=CCC(C(=O)Nc1cccc2nc[nH]c12)C(=O)OCC (stereo not drawn) | > 100 µM (inactive) | > 100 µM (inactive) | > 100 µM (inactive) | – | > 100 µM (inactive) | > 100 µM (inactive) | – | > 100 µM (inactive) | > 100 µM (inactive) | > 100 µM (inactive) | > 100 µM (inactive) | > 100 µM (inactive) | > 100 µM (inactive) | – | > 100 µM (inactive) | 85.3 µM (inactive) | > 100 µM (inactive) | > 100 µM (inactive) | > 100 µM (inactive) | > 100 µM (inactive) |
| NP1(Oc2ccc(F)cc2)=NP(N)(Oc2ccc(F)cc2)=NP(Oc2ccc(F)cc2)(Oc2ccc(F)cc2)=N1 (stereo not drawn) | 13.8 µM (inactive) | 3.78 µM (inactive) | 14.2 µM (inactive) | 5.27 µM (inactive) | 4.19 µM (inactive) | 4.58 µM (inactive) | – | – | 3.67 µM (inactive) | 3.37 µM (inactive) | 11 µM (inactive) | 4.06 µM (inactive) | 4.68 µM (inactive) | 10.2 µM (inactive) | 11.5 µM (inactive) | – | 7.52 µM (inactive) | 3.99 µM (inactive) | – | < 0.01 µM (active) |
| CC(=O)N(C)SCC(NC(=O)C(Cc1ccccc1)NC(=O)OCc1ccccc1)C(=O)NC(Cc1ccccc1)C(=O)NC(Cc1cn(C=O)c2ccccc12)C(=O)NC(CCCCNC(=O)OCc1ccccc1)C(=O)NC(C(=O)NC(CSN(C)C(C)=O)C(=O)NC(C(N)=O)C(C)OCc1ccccc1)C(C)OCc1ccccc1 (stereo not drawn) (Cbz-F[X34]FW(For)K(Cbz)T(Bn)[X34]T(Bn)-NH2; configuration not given here) | > 100 µM (inactive) | 19.7 µM (inactive) | 33.2 µM (inactive) | 40.4 µM (inactive) | > 100 µM (inactive) | 61.5 µM (inactive) | 14.6 µM (inactive) | > 100 µM (inactive) | 11.3 µM (inactive) | > 100 µM (inactive) | 24.1 µM (inactive) | 45.7 µM (inactive) | > 100 µM (inactive) | – | > 100 µM (inactive) | 84.9 µM (inactive) | > 100 µM (inactive) | > 100 µM (inactive) | 87.9 µM (inactive) | – |
| COc1cc2c(cc1OCCCCOc1cc3c(cc1OC)C(=O)N1CCC[C@H]1C(=O)N3)N=C[C@@H]1CCCN1C2=O | 3.82 µM (inactive) | – | – | 9.79 µM (inactive) | 5.02 µM (inactive) | 16.8 µM (inactive) | 3.59 µM (inactive) | 13.5 µM (inactive) | 4.12 µM (inactive) | 2.27 µM (inactive) | 13.2 µM (inactive) | 14.8 µM (inactive) | 11.5 µM (inactive) | 11.6 µM (inactive) | 13.1 µM (inactive) | 3.35 µM (inactive) | 17.2 µM (inactive) | 18.3 µM (inactive) | 1.12 µM (inactive) | 6.71 µM (inactive) |
| Cc1cccc(-c2cccc(COCc3cccc(-c4cccc(CO)n4)n3)n2)n1 | > 50 µM (inactive) | 47.2 µM (inactive) | > 50 µM (inactive) | – | > 50 µM (inactive) | > 50 µM (inactive) | – | > 50 µM (inactive) | > 50 µM (inactive) | 4.41 µM (inactive) | 38.5 µM (inactive) | > 50 µM (inactive) | 3.7 µM (inactive) | 34.4 µM (inactive) | > 50 µM (inactive) | > 50 µM (inactive) | > 50 µM (inactive) | > 50 µM (inactive) | > 50 µM (inactive) | > 50 µM (inactive) |
| ON=C(CC(O)(C(F)(F)Cl)C(F)(F)Cl)CC(O)(C(F)(F)Cl)C(F)(F)Cl | 3.55 µM (inactive) | – | 2.99 µM (inactive) | 2.99 µM (inactive) | 8.38 µM (inactive) | 3.29 µM (inactive) | 2.7 µM (inactive) | 4.07 µM (inactive) | 6.61 µM (inactive) | 4.83 µM (inactive) | 5.21 µM (inactive) | 3.33 µM (inactive) | 3.23 µM (inactive) | 5.46 µM (inactive) | – | 3.46 µM (inactive) | 3.28 µM (inactive) | 5.46 µM (inactive) | 3.21 µM (inactive) | 2.87 µM (inactive) |
| O=C(COc1ccccc1)N(C(=O)N1CCN(c2ccccc2)CC1)S(=O)(=O)c1ccccc1 | 60.8 µM (inactive) | > 100 µM (inactive) | > 100 µM (inactive) | > 100 µM (inactive) | > 100 µM (inactive) | 44 µM (inactive) | – | 57.4 µM (inactive) | 33.9 µM (inactive) | 25.4 µM (inactive) | 44.2 µM (inactive) | 94.6 µM (inactive) | 62.4 µM (inactive) | > 100 µM (inactive) | > 100 µM (inactive) | > 100 µM (inactive) | 98.6 µM (inactive) | > 100 µM (inactive) | 31.9 µM (inactive) | > 100 µM (inactive) |
| Cc1nc2ccccc2n1COC(Cn1ccnc1)c1ccc(Cl)cc1Cl (stereo not drawn) | 78.3 µM (inactive) | 23.3 µM (inactive) | – | > 100 µM (inactive) | 71.4 µM (inactive) | 53.7 µM (inactive) | – | – | 53.6 µM (inactive) | 30.1 µM (inactive) | 75.7 µM (inactive) | 25.6 µM (inactive) | 41.4 µM (inactive) | 17.4 µM (inactive) | > 100 µM (inactive) | 56.5 µM (inactive) | > 100 µM (inactive) | 72.4 µM (inactive) | > 100 µM (inactive) | > 100 µM (inactive) |
| CCOP(=O)(OCC)C(C)(CC)NC1=NC(C(F)(F)F)(C(F)(F)F)NC(=O)N1 (stereo not drawn) | > 100 µM (inactive) | > 100 µM (inactive) | > 100 µM (inactive) | > 100 µM (inactive) | > 100 µM (inactive) | > 100 µM (inactive) | > 100 µM (inactive) | 11.3 µM (inactive) | > 100 µM (inactive) | > 100 µM (inactive) | > 100 µM (inactive) | > 100 µM (inactive) | > 100 µM (inactive) | > 100 µM (inactive) | > 100 µM (inactive) | > 100 µM (inactive) | > 100 µM (inactive) | > 100 µM (inactive) | – | – |
| CSC1=N/C(=C\c2ccc(Cl)cc2)C(=O)N1CN1CCOCC1 | 18.2 µM (inactive) | 0.308 µM (active) | 30.6 µM (inactive) | 52.2 µM (inactive) | 85.7 µM (inactive) | 27.5 µM (inactive) | – | 46.8 µM (inactive) | 55.2 µM (inactive) | 40 µM (inactive) | 33.4 µM (inactive) | 23 µM (inactive) | 41.7 µM (inactive) | – | 87.9 µM (inactive) | 28.9 µM (inactive) | 63.8 µM (inactive) | > 100 µM (inactive) | 30.7 µM (inactive) | 17.6 µM (inactive) |
| O=CN(CCN1CCCC1)C1CCc2cc(Cl)c(Cl)cc2C1 (stereo not drawn) | 18.5 µM (inactive) | 33.2 µM (inactive) | 0.714 µM (active) | 13.6 µM (inactive) | 4.5 µM (inactive) | 10.6 µM (inactive) | 10.9 µM (inactive) | – | – | 24.4 µM (inactive) | 7.55 µM (inactive) | 14.1 µM (inactive) | 12.3 µM (inactive) | 18.9 µM (inactive) | 17.4 µM (inactive) | – | 34.7 µM (inactive) | 7.71 µM (inactive) | 10.1 µM (inactive) | – |
| O=C1/C(=C/c2ccccc2)CCCc2ccccc21 | 17.7 µM (inactive) | 15.3 µM (inactive) | 38.2 µM (inactive) | 20.8 µM (inactive) | 18.1 µM (inactive) | 16.8 µM (inactive) | – | 18.4 µM (inactive) | 35.3 µM (inactive) | 18.5 µM (inactive) | 16.4 µM (inactive) | 17.6 µM (inactive) | 18.4 µM (inactive) | 22.3 µM (inactive) | 19.1 µM (inactive) | 15.1 µM (inactive) | 23.2 µM (inactive) | 22.9 µM (inactive) | 21.1 µM (inactive) | – |

Source: ChEMBL document CHEMBL1201862, “PubChem BioAssay data set” (2004)
